Experimental data taken from PMC4697807, “Novel Zn^2+ Modulated GPR39 Receptor Agonists Do Not Drive Acute Insulin Secretion in Rodents” (PLoS ONE, 2015).
Read-outs that look alike come from different tables or passages of the source.

What was measured:
GPR39 = biological target: T1, GPR39 (Homo sapiens, UniProt O43194); assay: cAMP assay (HTRF), HEK293s-hGPR39 cells; assay type: cell-based; parameters: Full length human (AF034633), rat (DM091294) and mouse (BC085285) GPR39; expressed in transfected cells; host or cells: HEK293s (ATCC CRL-1573), pIRESneo3 vector, selected clones; settings: for Efficacy at 33 μM: AZ1395 100% reference
T1 sequence (O43194 1-453): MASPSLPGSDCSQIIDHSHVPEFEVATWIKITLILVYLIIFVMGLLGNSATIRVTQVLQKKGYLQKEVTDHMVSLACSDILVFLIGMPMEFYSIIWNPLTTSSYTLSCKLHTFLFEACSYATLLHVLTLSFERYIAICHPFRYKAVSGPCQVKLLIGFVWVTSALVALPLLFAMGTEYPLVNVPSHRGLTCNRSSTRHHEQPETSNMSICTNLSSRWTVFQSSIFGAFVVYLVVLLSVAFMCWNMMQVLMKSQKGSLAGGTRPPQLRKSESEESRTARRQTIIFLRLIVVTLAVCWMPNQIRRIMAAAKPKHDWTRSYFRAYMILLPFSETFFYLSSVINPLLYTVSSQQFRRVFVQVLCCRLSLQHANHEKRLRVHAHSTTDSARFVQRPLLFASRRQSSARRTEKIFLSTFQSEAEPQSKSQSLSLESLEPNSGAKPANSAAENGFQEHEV
Source text: (§1) Full length human (AF034633), rat (DM091294) and mouse (BC085285) GPR39 (GeneArt–Life Technologies, Carlsbad, CA) were subcloned into the pIRESneo3 vector (Clontech, Mountain View, CA). The resulting expression vectors hGPR39-, rGPR39- and mGPR39-pIRESneo3 were transfected into HEK293s cells (ATCC CRL-1573) using Lipofectamine 2000 (Life Technologies). Individual clones were isolated using flow cytometry with a FACSVantage SE DIVA (Becton Dickinson, Franklin Lakes, NJ) and clones were chosen based on responses to Zn^2+ measured in a cAMP assay (see below). […] HEK293s-derived cell lines were cultured at 37°C, 10% CO2 and 95% humidity in DMEM supplemented with 10% FBS and 600 μg/ml Geneticin (Life Technologies). The mouse pancreas epithelial cell line NIT-1 (ATCC CRL-2055) with endogenous expression of GPR39 was cultured at 37°C, 5% CO2, and 95% humidity in Ham´s F12 (Life Technologies) supplemented with 10% FBS.
Measurements of cAMP production were performed using homogeneous time resolved fluorescence (HTRF) cAMP dynamic kits (CisBio, Codolet, France). All buffers and reagents were according to manufacturer’s protocol. In short, 0.1 μl of compounds in DMSO were added to small-volume 384-well plates (Greiner, Frickenhausen, Germany). 12,000 (5 μl) cells in Hank’s balanced salt solution (HBSS) (Life Technologies) and 20 mM HEPES (pH7.4; Life Technologies) were added per well. The production of cAMP was stimulated for 75 min at 37°C by addition of 5 μl 3-isobutyl-1-methylxanthine (0.375 mM final concentration; Sigma-Aldrich, St Louis, MO) and ZnCl2 (0 to 30 μM; Sigma). The reaction was stopped by addition of 5 μl cAMP-d2 and 5 μl anti-cAMP cryptate. The cAMP production was detected by HTRF (λex = 340 nm, λem = 665 and 615 nm) using a Pherastar (BMG Labtech, Ortenberg, Germany).
(§2) Concentration response data were fitted with a four parameter logistic fit using Eq 1, y=A+((B−A)/1+((C/x)^D))) (1) where A is no activation, B is full activation, C is the EC50 and D is the Hill slope.

mGPR39 = biological target: T2, mGPR39 (Mus musculus, UniProt Q5U431); assay: DMR label-free assay, HEK293s cells transfected with mouse GPR39; assay type: cell-based; settings: for Efficacy at 33 μM: AZ1395 100% reference
T2 construct: Full length human (AF034633), rat (DM091294) and mouse (BC085285) GPR39; expressed in transfected cells; host or cells: HEK293s (ATCC CRL-1573), pIRESneo3 vector, selected clones
T2 sequence (Q5U431 1-456): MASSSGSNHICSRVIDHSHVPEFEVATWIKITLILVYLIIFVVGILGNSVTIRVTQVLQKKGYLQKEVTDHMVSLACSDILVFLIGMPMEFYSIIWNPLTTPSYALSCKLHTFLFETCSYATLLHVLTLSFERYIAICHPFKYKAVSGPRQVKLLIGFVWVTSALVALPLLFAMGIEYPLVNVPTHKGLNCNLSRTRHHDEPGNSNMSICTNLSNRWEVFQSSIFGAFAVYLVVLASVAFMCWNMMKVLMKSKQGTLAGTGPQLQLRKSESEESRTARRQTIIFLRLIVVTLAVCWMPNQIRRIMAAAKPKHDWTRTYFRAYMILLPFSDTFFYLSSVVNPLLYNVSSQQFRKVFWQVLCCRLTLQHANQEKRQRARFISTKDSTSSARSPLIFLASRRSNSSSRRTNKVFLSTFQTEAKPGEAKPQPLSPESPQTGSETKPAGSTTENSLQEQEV
Source text: as §1
DMR assays were performed using an Epic instrument (Corning Inc., Corning, NY). 12,000 cells per well were cultured for 24 h in 384-well fibronectin-coated Epic biosensor plates (Corning). On the day of experiment, culture medium was removed and replaced with 30 μl buffer A (HBSS, HEPES 20 mM pH7.4, 1% DMSO, 0.01% BSA) using an EL406 (Bio-Tek). Plates were incubated at 26 °C for 1 h inside the Epic to allow for temperature equilibration. A baseline was read for 2 min, and then 15 μl compounds in buffer A were added using a CyBi-Well vario (CyBio) and DMR was detected during 45 min.
as §2

[1] = absence (w/o) of Zn^2+, read-out: EC50
[2] = presence of 5 μM Zn^2+, read-out: EC50
[3] = presence of 5 μM Zn^2+, read-out: pEC50 ± SD (converted)

Compound	Efficacy at 33 μM (GPR39; absence (w/o) of Zn^2+)	EC50 (GPR39; [1])	EC50 (GPR39; [2])	EC50 (mGPR39; [1])	EC50 (mGPR39; absence (w/o) of Zn^2+, read-out: pEC50 ± SD (converted))	EC50 (mGPR39; [3])	EC50 (GPR39; [3])	Efficacy at 33 μM (mGPR39; absence (w/o) of Zn^2+)	EC50 (mGPR39; [2])	pEC50 ± SD (GPR39; Zn^2+ by itself)	EC50 (GPR39; Zn^2+ by itself, read-out: EC50)
N#Cc1ccc(OCCn2ccnc2)c(OCCn2ccnc2)c1 [AZ1395, 3,4-bis-(2-imidazol-1-ylethoxy)-benzonitrile]	81%	> 33000 nM	490 nM	10000 nM	10500 nM	166 nM	–	–	–	–	–
Cc1nc2c(C(=O)O)cnn2c(O)c1Cc1ccc(Cl)cc1 [AZ4237, 6-[(4-chlorophenyl)methyl]-7-hydroxy-5-methyl-pyrazolo[1,5-a]pyrimidine-3-carboxylic acid]	49%	> 33000 nM	–	> 33000 nM	–	457 nM	389 nM	12%	450 nM	–	–
Cc1nc(-c2nc3c(c(=O)[nH]2)CN(C(=O)c2cccc(Cl)c2F)CC3)cs1 [AZ7914, 6-(3-chloro-2-fluoro-benzoyl)-2-(2-methylthiazol-4-yl)-3,5,7,8-tetrahydropyrido-[4,3-d]pyrimidin-4-one]	21%	> 33000 nM	–	> 33000 nM	–	316 nM	2290 nM	42%	–	–	–
[Zn+2] [Zn^2+]	–	–	–	–	–	–	–	–	–	(4.92 ± 0.13)	12000 nM
